# In the NIST ThermoML archive (doi:10.1021/je900977e):
# Where “and” joins values, the source holds several entries; their conditions need not be identical. Equal values may be shown once. Numbers after ± are expanded uncertainties.
# Details: 313.15 K; Liquid; Closed cell (Static) method
row,Structure (SMILES),vapor or sublimation pressure
1,c1ccccc1 [benzene],24.4 ± 0.094 kPa and 24.38 ± 0.094 kPa
2,CC(C)OC(C)C [diisopropyl ether],37.11 ± 0.14 kPa and 37.13 ± 0.14 kPa
3,CC(C)O [propan-2-ol],13.9 ± 0.06 kPa and 13.89 ± 0.06 kPa
